{"source": "paper doi:10.1101/2020.11.06.371534v1", "about": "(biorxiv, 2020)", "key": {"[1]": {"target": "T1, Porcine pancreatic elastase (PE) (Sus scrofa, UniProt P00772)", "T1 sequence (P00772 27-266)": "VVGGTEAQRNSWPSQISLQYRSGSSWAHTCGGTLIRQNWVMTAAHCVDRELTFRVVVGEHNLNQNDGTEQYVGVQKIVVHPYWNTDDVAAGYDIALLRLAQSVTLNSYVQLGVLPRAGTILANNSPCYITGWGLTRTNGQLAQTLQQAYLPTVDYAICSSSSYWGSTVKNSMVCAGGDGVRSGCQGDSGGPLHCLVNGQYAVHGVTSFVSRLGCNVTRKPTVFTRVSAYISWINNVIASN", "experiment": "chromogenic assay, OD […] nm, non-linear regression", "type": "biochemical"}, "[2]": {"target": "T1, Porcine pancreatic elastase (PE)", "experiment": "microscale thermophoresis, NT-647-NHS labelled enzyme", "type": "binding"}, "[3]": {"target": "T1, Porcine pancreatic elastase (PE)", "experiment": "chromogenic assay, OD […] nm", "type": "biochemical"}}, "note": "Structures can show the parent of a compound that is named as a salt."}
{"smiles": "O=c1cc(-c2ccccc2)oc2cc(O)c(O)c(O)c12", "note": "[Baicalein, 5,6,7-trihydroxy-2-phenylchromen-4-one]", "values": [{"measurement": "IC50", "setting": "[1]", "value": 3.53, "unit": "µM"}, {"measurement": "Kd", "setting": "[2]", "value": 0.0262, "unit": "µM"}]}
{"smiles": "O=c1c(O)c(-c2ccccc2)oc2cc(O)cc(O)c12", "note": "[Galangin, 3,5,7-trihydroxy-2-phenylchromen-4-one]", "values": [{"measurement": "inhibition at 100 µM", "setting": "[3]; read-out: % inhibition at 100 μM", "value": 23.6, "unit": "%"}]}
{"smiles": "COc1ccc([C@@H]2CC(=O)c3c(O)cc(O)cc3O2)cc1O", "note": "[Hesperetin, (2S)-5,7-dihydroxy-2-(3-hydroxy-4-methoxyphenyl)-2,3-dihydrochromen-4-one]", "values": [{"measurement": "inhibition at 125 µM", "setting": "[3]; read-out: % inhibition at 125 μM", "value": 31.5, "unit": "%"}]}
{"smiles": "CC(C)(C)C(=O)Oc1ccc(S(=O)(=O)Nc2ccccc2C(=O)NCC(=O)O)cc1", "note": "[Sivelestat sodium salt hydrate, sodium;2-[[2-[[4-(2,2-dimethylpropanoyloxy)phenyl]sulfonylamino]benzoyl]amino]acetate]", "values": [{"measurement": "IC50", "setting": "[1]", "value": 15.8, "unit": "µM"}]}
